Patent publication US20260028596A1, “METHOD FOR PRODUCING HIGH YIELD AND HIGH QUALITY RECOMBINANT ADENO-[…]” (Aavatar Therapeutics Co.,Ltd., priority 2022, published 2026)

Legend:
[1] = tested on: Host cells capable of producing recombinant adeno-associated virus of the AAV9 serotype (Expi293F cells); experiment: Osmotic shock process: viral genomes (vg) recovered from media of rAAV-producing host cells; type: cell-based; conditions: 0.5 M salt as osmotic shock reagent, added 4 days after transfection, 3 hours; vs negative control NT (FIG. 2)
Method: (§1) Expi293F cells (Cat #A14527, Thermo) were grown in Expi293 Expression Medium (Cat #A14351-02, Thermo) supplemented with 1% penicillin-streptomycin (Cat #15140122, Thermo). Then, the cells were maintained under serum-free suspension culture conditions. Herein, the serum-free suspension culture conditions were as follows: 120 rpm stirring rate in a shaker incubator (Cat #NB-206CL, N-biotek, South Korea); 37° C.; 8% CO2; and 85% relative humidity.
(§2) Expi293F cells were seeded in Expi293F expression media at a density of 2.5×10^6 cells per 1 mL and cultured for 3 hours. Then, the cells were transfected using 25-kDa linear PEI (Cat #23966-1, Polyscience, USA) along with the three plasmids (pHelper[Cat #112867, Addgene], pRC9n[Cat #112865, Addgene], and pAAV[Cat #105530, Addgene]), respectively. Specifically, the plasmids were mixed in DMEM (Cat #10569010, Thermo) at 1/10 the volume of cells to be transfected. Next, PEI was added to DNAs diluted in DMEM. After an additionally 20-minute culture, a DNA-PEI complex was added to the cells.
The following experiment was conducted to determine a yield improvement effect of the recombinant adeno-associated virus production process including the osmotic shock process depending on osmotic shock conditions:
Host cells capable of producing recombinant adeno-associated virus of the AAV9 serotype were prepared according to Experimental Examples 1.1 to 1.3.
For each experimental group, 2.5×10^6 cells per mL were seeded in a 30 mL culture vessel, and experiments were conducted using a total of 16 culture vessels for each experimental group.
On the basis of the time of transfection of the recombinant adeno-associated virus expression plasmid into the host cells, an osmotic shock reagent was added 4 days later, the condition was maintained for 3 hours, sample media and/or cells were harvested, and the viral genome was (vg) counts were measured.

[2] = tested on: Host cells capable of producing a recombinant adeno-associated virus of a AAV9 serotype (Expi293F cells); experiment: Pre-culture treatment process: rAAV yield (total vg) of host cells; type: cell-based; conditions: pre-culture agent with PEI (1 mg/ml), Nocodazole 4 uM and/or M344 2.5 uM, 4 hours after transfection; osmotic shock after 4 days (FIG. 3)
Method: as §1, §2
The following experiment was conducted to determine a yield improvement effect of the recombinant adeno-associated virus production process including the pre-culture treatment process depending on pre-culture treatment conditions: […]

Structure (SMILES) | number of viral genomes recovered from the media, by salt type [1] | yield of recombinant adeno-associated virus in the host cells [2]
[Cl-].[K+] [KCl, potassium chloride] | significant increase in the number of viral genomes recovered from the media | –
CN(C)c1ccc(C(=O)NCCCCCCC(=O)NO)cc1 [M344] | – | yield of recombinant adeno-associated virus in the host cells was increased
[Cl-].[Cl-].[Mg+2] [MgCl2, magnesium chloride] | significant increase in the number of viral genomes recovered from the media | –
[Cl-].[Na+] [NaCl, sodium chloride] | significant increase in the number of viral genomes recovered from the media | –
COC(=O)Nc1nc2ccc(C(=O)c3cccs3)cc2[nH]1 [Nocodazole] | – | yield of recombinant adeno-associated virus in the host cells was increased
